Reference: US20150313913A1, “POSITIVE ALLOSTERIC MODULATORS OF THE GABA-A RECEPTOR IN THE TREATMENT OF AUTISM” (UNIVERSITY OF WASHINGTON THROUGH ITS CENTER FOR …, priority 2013, published 2015)
Entries after “also recorded” stand apart in the source; their conditions may differ.

Experiments:
[1] = system: mouse genetic models of human Dravet syndrome and idiopathic autism; test: Summary: low-dose treatment of mouse models of autism; type: in vivo, mice; conditions: low doses that do not induce sedative or anxiolytic effects
Text: The present disclosure describes methods effective in the rescue or amelioration of autism-like behavior, cognitive deficit, and context-dependent spatial memory.
In particular embodiments, these methods comprise the administration of low doses of a benzodiazepine to a human or other mammalian subject in order to rescue autism-like behavior, cognitive deficit, and context-dependent spatial memory. […] At such low doses, the administration of benzodiazepines, such as CLZ, to mammalian subjects will result in improvement of autism-like behavior, cognitive deficit, and context-dependent spatial learning and memory with much lower levels of sedation compared to mammalian subjects who receive typical higher doses of CLZ or other benzodiazepines that are used for treatment of anxiety, insomnia, or seizure.
The present disclosure is also directed to methods of rescuing or ameliorating indicia of Autism Spectrum disorders, autism-like behavior, cognitive deficit, and context-dependent spatial learning and memory in Dravet syndrome or idiopathic autism with α-2,3-specific GABA-A receptor positive allosteric modifiers. Such α-2,3-subunit selective GABA-A receptor positive allosteric modifiers include L838,417.
Therapeutic approaches to treat autistic traits in animal studies or in clinical trials have primarily focused on reducing excitatory neurotransmission in glutamatergic synapses to rebalance E/I ratio in autistic brain (Michalon et al., 2012; Yang et al., 2012). However, autistic-like behaviors in ASD mouse models are only partially reversed by drugs that inhibit excitatory neurotransmission, and these drugs also have unwanted side effects on wild-type mice (Henderson et al., 2012; Michalon et al., 2012; Yang et al., 2012). To overcome these drawbacks, the inventors focused on the opposing side, the GABAergic inhibitory transmission in autistic brain. Their results highlight the potential for therapy of autistic-like behaviors and cognitive deficit in ASD by low-dose treatment with subunit-selective benzodiazepines and other positive allosteric modulators of GABA-A receptors. […] It is possible that the biphasic dose-response relationship of the positive allosteric modulators reflects their actions on receptors containing α2,3 subunits at low doses and on receptors containing α1 subunits at higher doses.

Scn1a+/− mice = test: Three-chamber social preference test; type: in vivo
Text: The mouse was allowed to freely explore each chamber. […] The recorded video file was further analyzed by off-line video tracking software (ETHOVISION™ XT 7.0). […] All data shown are means±s.e.m. and analyzed using two-way ANOVA with Bonferroni's post hoc analysis and one-way ANOVA with Tukey's post hoc analysis.
Oral administration is specifically contemplated for the methods described herein, and is well known for both benzodiazepines and non-BDZ GABA-A enhancers as described herein.
(§1) The test was performed as described previously (Han et al., 2012) with minor modifications. The threechamber apparatus is a non-transparent Plexiglas box (30×60 cm) with two transparent partitions that make left, center, and right chambers (30×20 cm). In the first 10-min session, a test mouse was placed in the center of the empty three-chamber unit to habituate the test mouse. The mouse was allowed to freely explore each chamber. In the second 10-min session, an age- and gender-matched same strain mouse that had never been exposed to the test mouse, was placed in one of the two wire cages. The empty wire cage as an inanimate object cue was placed on the other side. Then, the test mouse was placed again in the center, and allowed to freely explore the chamber for 10 min. Time spent in each chamber, and time spent within a 5 cm radius proximal to each wire cage, as a close interaction were measured by the videotracking software (EthoVision XT 8.5, Noldus Technology). All data shown are means±s.e.m. and analyzed using two-way ANOVA with Bonferroni's post hoc analysis and one-way ANOVA with Tukey's post hoc analysis.
(§2) L-838,417, and DMCM (Sigma), dissolved in 100% DMSO (sterile, Sigma) was diluted in PBS (the final concentration of DMSO was ranged from 0.005% to 0.1%). Drugs were administered by an intraperitoneal injection in a volume of […] 30 min before the behavioral tests.

BTBR mice = test: Three-chamber social interaction test; conditions: for social interaction deficit: 0.05 mg/kg (low dose) 30 min before test; for effect on social interaction at doses above the maximally effective dose: higher doses; for dose of maximal effect on social interaction: i.p., 30 min before test; for social interaction (time with stranger mouse, close interaction), dose series: single i.p. injection 30 min before test, low/increasing doses
Protocol: In the three-chamber test, a test mouse is placed in the center chamber, and the preference of the test mouse for interaction with an inanimate object (a small empty cage) in the left chamber vs. a stranger mouse in an identical cage in the right chamber using a digital camera and quantitative video-tracking analysis.
as §1, §2

C57BL/6J mice [2] = test: Three-chamber social interaction test; type: in vivo; conditions: for social interaction preference, Pre/CLZ/Post protocol: low dose (0.05 mg/kg), 0.05 mg/kg
Text: The mouse was allowed to freely explore each chamber.

C57BL/6J mice [3] = test: Context-dependent fear conditioning test; type: in vivo
Text: The contextual fear-conditioning chamber was a square arena (25×25 cm) with clear PLEXIGLAS™ walls and a metal grid floor connected to a circuit board that delivered shocks to the metal grid (COULBOURN INSTRUMENTS™). An analog camera was attached on top of the chamber. The camera and the circuit board were connected to a personal computer, and its software (FREEZE FRAME™ 2.0, ACTIMETRICS™) controlled the circuit and recorded the data. The chamber was cleaned with 70% ethanol and wiped with paper towels before each session. In the habituation session, a test mouse was placed in the chamber and allowed to explore for 2 min^66-69. Immediately after habituation, the test mouse received a single mild foot shock (2 s, 0.5 mA). After staying in the chamber one more min, the mouse was removed from the chamber. For the 30-min short-term memory test, the mouse was returned to the context 30 min after the end of the training session. For 24-hr long-term memory test, the mouse was returned to the context 24 hr after the training session. The movement of mice was also recorded by a USB webcam (LIFECAM™ HD-6000, MICROSOFT™) and PC-based video capture software (WINAVI™ Video Capture, ZJ MEDIA DIGITAL TECHNOLOGY™) for 2 min. The recorded video file was further analyzed by off-line video tracking software (ETHOVISION™ XT 7.0, NOLDUS TECHNOLOGY™). The freezing scores were calculated by dividing the test session into 1 min bouts and averaging together all 2 min for each animal. All data shown.
Freezing behavior is defined as the period during which the velocity of the test mouse is less than 1.75 cm/s, and non-freezing behavior is defined as the period during which the velocity of the mouse is greater than 2 cm/s.

GABA-A receptor = conditions: cited from earlier work

In the case of `O=C1CN=C(c2ccccc2Cl)c2cc([N+](=O)[O-])ccc2N1` [Clonazepam], the “autistic-like behaviors and cognitive deficit in BTBR mice (summary)” value [1] is reported as “improved”, the “social interaction, 3-chamber social preference test” value (Scn1a+/− mice; single i.p. 0.0625 mg/kg 30 min before test, listed as CLZ, 0.0625 mg/kg) is reported as “completely rescued; also recorded: completely restored; also recorded: completely recovered” and the social interaction deficit (BTBR mice) is reported as “reversibly rescued; also recorded: improved”. For the same molecule, the social interaction deficit (BTBR mice; listed as CLZ) was “recover their preference”, the “social interactions on Day 1 of repeated treatment” value (BTBR mice; 0.05 mg/kg i.p. daily) was “significantly increased” and the “social interactions after 14 days of repeated treatment” value (BTBR mice; 0.05 mg/kg i.p. daily for 14 days) was “fully retained and even increased”. The “sedation / total distance moved during the three-chamber test” value (BTBR mice; dose range up to 0.5 mg/kg (clonazepam: test doses)) was “did not cause sedation; also recorded: no sedation”, the “improvement of social deficit: time of interaction with stranger mouse vs. novel object” value (BTBR mice; dose series (FIG. 39D)) was “strikingly dose-dependent” and the “increase of time spent in the chamber containing the stranger mouse” value (BTBR mice; doses from 0.00625 mg/kg to 0.05 mg/kg i.p.) was “approximately 2.5 fold”. For the same molecule, the “effect on social interaction at doses above the maximally effective dose” value (BTBR mice) was “not observed; also recorded: lost at higher doses”, the “dose of maximal effect on social interaction” value (BTBR mice) was 0.05 mg/kg and the “tolerance to rescue of social interaction behavior” value (BTBR mice; repeated 0.05 mg/kg, 14 days) was “does not elicit tolerance”. The “social interaction (time with stranger mouse, close interaction), dose series” value (“social interaction … dose series” below) (BTBR mice) was “rescued; also recorded: increased”, the “time of interaction with stranger mouse vs. novel object” value (C57BL/6J mice [2]; any of the test doses (FIG. 39C)) was “unaffected” and the “social interactions / close interaction” value (C57BL/6J mice [2]; clonazepam single injection, 0-0.1 mg/kg) was “not altered; also recorded: no effect”. The “social interaction preference, Pre/CLZ/Post protocol” value (C57BL/6J mice [2]) was “not changed; also recorded: None of these treatments had any significant effect”, the “social interaction preference, Pre/CLZ/Post protocol” value (C57BL/6J mice [2]; listed as CLZ) was “does not significantly alter” and the “cognitive changes in fear conditioning” value (C57BL/6J mice [3]; clonazepam, any dose (0-0.1 mg/kg)) was “no cognitive changes”. The “Effect at GABA-A receptor” value (GABA-A receptor; Table 1, exemplary benzodiazepines) was “Agonist Long- acting”.
With `Cn1ncnc1COc1nn2c(-c3cc(F)ccc3F)nnc2cc1C(C)(C)C` [L-838,417] the “autistic-like behaviors and cognitive deficit in BTBR mice (summary)” value [1] was “improved”, the “social interactions in three-chamber test” value (Scn1a+/− mice; low doses, narrow dose range (FIGS. 41N, 41O)) was “improves social interactions” and the social interaction deficit (BTBR mice) was “rescued”. For the same molecule, the “social behavior (close interaction)” value (BTBR mice; 0.5 mg/kg) was “disappeared”, the “dose at low point of time in the chamber with the inanimate object” value (BTBR mice; biphasic dose-response) was 0.05 mg/kg and the “effect on social interaction at doses above the maximally effective dose” value (BTBR mice) was “lost when the dose increased”. For the same molecule, the “effect on social interaction at doses above the maximally effective dose” value (BTBR mice; listed as L838,417) was “reduced response”, the “dose of maximal effect on social interaction” value (BTBR mice) was 0.05 mg/kg and the “time of interaction with the inanimate object” value (BTBR mice; increasing doses) was “decrease”. For the same molecule, the “total movement during the three-chamber test at high dose” value (BTBR mice; mouse, in vivo) was “tended to increase”, the “social interaction … dose series” value (BTBR mice) was “increased” and the “social interaction … dose series” value (BTBR mice; listed as L818,417) was “progressively increase”. For the same molecule, the “social behavior, dose series” value (C57BL/6J mice [2]; L-838,417 / zolpidem (FIGS. 45I, 45J)) was “not changed; also recorded: did not change”, the “memory of the spatial context” value (C57BL/6J mice [3]; 0.05 mg/kg L838,417) was “no effect” and the “Effect at GABA receptor” value (GABA-A receptor; Table 2, exemplary SS-PAMs) was “Partial agonist Selective for α2, α3 (and possibly α5) subunits”.
